# Data: patent US9504722B2, “Anti-obese compositions containing holoptelea integrifolia extracts” (Laila Nutraceuticals, priority 2007, dated 2016)
# Key:
# [1] = tested on: Sprague-Dawley rats on high fat diet; experiment: Protective effect against diet induced obesity in rats; assay type: in vivo, rat; settings: 7 mg/kg body weight, 8 weeks, vs control group
# Method: Protective Effect of Holoptelea integrifolia Against Diet Induced Obesity in Rats.
# Selected healthy Sprague-Dawley rats were randomly assigned to control or various treatment groups (n=6). All the animals allocated for protective phase of the study were on dietary intervention by feeding high fat diet ad libitum and the animals allocated to treatment groups were simultaneously given oral administration of 100 mg or 250 mg/kg Holoptelea integrifolia methanol extract in 10 mL of 0.5% CMC, using gastric tube for the entire 8 week study duration. The test animals of the control group were simultaneously given 10 ml/kg of 0.5% CMC. Sibutramine (7 mg/kg body weight) was used as a positive control. Food and water consumption were recorded daily, body weights were recorded weekly and fasting blood samples were collected before initiation, after 4th week and 8th week (termination) of the study. The weight gain is plotted against the study duration in weeks (FIG. I). […] Upon administration of Holoptelea integrifolia alcohol extract for a period of 60 days, the level of triglyceride in the obese rats was reduced by 50% compared to the control. The levels of serum cholesterol and LDL were reduced by 40% and 45% respectively, whereas the level of HDL was increased by 25%.
# [2] = tested on: diet induced obese Sprague-Dawley rats; experiment: Anti-obese activity in diet induced obese rats (therapeutic); assay type: in vivo, rat; settings: 7 mg/kg body weight, 5 weeks after 8 weeks high fat diet, vs control group
# Method: Anti-Obese Activity of Holoptelea integrifolia in Diet Induced Obese Rats.
# Selected healthy Sprague-Dawley rats were randomly assigned to control or various treatment groups (n=6). All the animals allocated for the study were made obese through dietary intervention by feeding high fat diet ad libitum for 8 weeks. After 8 weeks, the treatment group of animals was given oral administration of 250 mg/kg or 500 mg/kg of Holoptelea integrifolia alcohol extract in 10 mL of 0.5% CMC, using gastric tube for 5 week study duration. Sibutramine (7 mg/kg body weight) is used as a positive control. The control group of animals were given 10 ml/kg of 0.5% CMC. Food and water consumption were recorded daily, body weights were recorded weekly and fasting blood samples were collected before initiation after 5th week of the study. The weight gain for different groups compared at weekly intervals (FIG. II).
smiles,measurement,setting,value
CC(C)CC(N(C)C)C1(c2ccc(Cl)cc2)CCC1 (centres unmarked) [Sibutramine],reduction in weight gain,[1],30.5%
same,reduction in weight gain,[2],123.1%
